Entries after “also recorded” stand apart in the source; their conditions may differ.
How the values were obtained:
[1] = system: patient-derived tumour spheroids (head and neck cancer patient); assay: Label-free image-based drug response (LaFOS) of 3D tumour spheroids over time; format: cell-based, human; conditions: for response of tumour spheroids over time (LaFOS time-course): 24, 48 and 72 hours after treatment, 1 μM
Experimental: The examples used in this disclosure were generated by seeding 5000 cells into each well of Corning® 384 Well Black Clear Round Bottom Ultra-Low Attachment Spheroid Microplates. The assay plates were incubated at 37° C., 5% CO2 over 3 days to allow formation of the tumour spheroids. At 96 hours, the spheroids were imaged (labelled as “untreated” in the study) using a confocal microscope at 20× (Perkin Elmer Opera Phenix High Content Screening system) and then treated at 1 μM of the compounds (in DMSO). In total, 1,231 spheroids were generated and treated in duplicates at 96 hours with small molecule and kinase inhibitors from the Selleck Anti-cancer library and Selleck Kinase Inhibitor chemical library. The drug treated spheroids were imaged subsequently at 24, 48 and 72 hours after treatment.
Bright-field images of the 1,231 spheroids acquired at different time-points and z-planes were computationally segmented into proliferating (red), quiescent (green) and necrotic (yellow) zones through a method referred to as “Spheroid Peeling” (FIG. 5). Other imaging methods can also be used—Phase contrast imaging, electron microscopy, wide-field, dark-field, super-resolution microscopy, and many more.
Briefly, “Spheroid Peeling” involves repeatedly segmenting the spheroid image from the periphery to the core zone. The entire spheroid was first segmented as an object (hereby referred to as spheroid object) and cropped from the original well image (FIG. 6). An “inner core” was then identified from the spheroid object, hereby referred to as quiescent object. The proliferating zone was obtained by masking the quiescent object from the spheroid object. Similarly, the necrotic zone was identified as the “inner core” of the quiescent object, and the quiescent zone was obtained by masking the necrotic zone from the quiescent object. A number of image features were quantified from each of the proliferating, quiescent and necrotic zones, resulting in a total of 504 image descriptors for each spheroid. The “spheroid peeling” algorithm can be written in a number of languages or image analysis tool, such as Cell Profiler, MATLAB or ImageJ.
FIG. 19 is a flow diagram 700 showing a machine learning based training method in accordance with the present disclosure for generating a computational model (or learning model) of drug response in spheroids. Two sets of spheroids were generated for imaging and for viability measurement, respectively. The two sets of spheroids were treated with the same drugs. For feasibility testing, a training set of 1,231 spheroids 1902 was generated. At 72 hours after drug treatment, acquisition 1904 of bright-field images 1906 was obtained. As data preprocessing 708, “Spheroid Peeling” 1910 was applied to obtain, through image feature quantification 1912, 504 image descriptors from the Proliferating, Quiescent and Necrotic zones of each tumour spheroid, resulting in over ˜600K image descriptors 1916 in total.
The learning process generated a computational model 1922 that can be perceived as a complex multi-feature numerical quantification of the drug response of the spheroids. Generating the computational model includes one or more of training the computational model or determining parameters of the computational model. […]

[2] = system: HN120M PDX; assay: In vivo treatment of HN120M PDX-bearing mice; conditions: mice n=6, 5 mg kg^−1 i.p. once every 2 days
Source text: (§1) Generation and passaging of PDXs. Tumour samples were obtained from patients post-surgery after obtaining informed patient consent in accordance to SingHealth Centralized Institutional Review Board (CIRB: 2014/2093/B). Tumours were minced into 1 mm^3 fragments and suspended in a mixture of 5% Matrigel (Corning, cat. no. 354234) in DMEM/F12 (Thermo Fisher, cat. no. 10565-018). The tumour fragment mixtures were then implanted subcutaneously into the left and right flanks of 5-7 weeks old NSG (NOD.Cg-Prkdcscid II2rgtm1Wjl/SzJ) (Jackson Laboratory, stock no. 005557) mice, using 18-gauge needles. Tumours were excised and passaged when they reached 1.5 cm^3. […]
(§2) Gefitinib (Iressa) was prepared by dissolving a 250 mg clinical grade tablet (AstraZeneca) in sterile water containing 0.05% Tween-80 (Sigma-Aldrich, cat. no. P4780) to a concentration of 10 mg/mL and administered at a dosage of 25 mg/kg daily via oral gavage. […] The length and width of tumours were measured by caliper once every 2 days. […] The weight of tumour was not directly measured, but were estimated using volume where the density of tissue was assumed to be 1 g/cm^3. The ratio of the change in treated tumour volume (ΔT) to the average change in control tumour volume (ΔT/Average ΔC) at each time point was calculated as follows: […]

[3] = system: HN137M PDX; assay: In vivo treatment of HN137M PDX-bearing mice; conditions: male mice n=5, 2 mg kg^−1 i.p. once every 2 days
Source text: as §1, §2

[4] = system: HN137P PDX; assay: In vivo treatment of HN137P PDX-bearing mice; conditions: male mice n=5, 2 mg kg^−1 i.p. once every 2 days
Source text: as §1, §2

[5] = system: spheroids derived from a head and neck cancer patient; assay: Micrograph morphology of drug-treated patient-derived spheroids; format: cell-based, human; conditions: spheroids approximately 500 microns
Source text: All three patient-derived spheroids are of similar sizes of approximately 500 microns.
On the other hand, morphological-based methods primarily use the size/volume or shape of the spheroids.

## Cn1c(=O)n(-c2ccc(C(C)(C)C#N)cc2)c2c3cc(-c4cnc5ccccc5c4)ccc3ncc21 [BEZ235]
[1]
  response of tumour spheroids over time (LaFOS time-course): remain unchanged; also recorded: unresponsive

## CN1CC[C@H](c2c(O)cc(O)c3c(=O)cc(-c4ccccc4Cl)oc23)[C@H](O)C1 [Flavopiridol]
[2]
  efficacy in in vivo model (PDX): already validated in in vivo models

## COCCn1c2c([n+](Cc3cnccn3)c1C)C(=O)c1ccccc1C2=O [YM155]
[3]
  anti-tumour effect in PDX (tumour volume vs vehicle): significant anti-tumour effect
[4]
  anti-tumour effect in PDX (tumour volume vs vehicle): did not display significant sensitivity

## COc1cc(N2CCC(N3CCN(C)CC3)CC2)ccc1Nc1ncc(Cl)c(Nc2ccccc2S(=O)(=O)C(C)C)n1 [NVP-TAE684]
[1]
  response of tumour spheroids over time (LaFOS time-course): increasing efficacy
[1]; over the course of 72 hours, duplicate spheroids (R1 and R2), treated at 1 μM
  inhibition rate (4-dimensional drug response of tumor spheroids): 60%

## N.N.[Cl][Pt][Cl] [Cisplatin]
[5]; high concentration
  morphological structure of tumour spheroid: enlarged core zone
[5]; low concentration
  morphological structure of tumour spheroid: resembled that of the untreated spheroid

## COc1ncc(-c2ccc3nccc(-c4ccnnc4)c3c2)cc1NS(=O)(=O)c1ccc(F)cc1F [GSK2126458]
[1]
  response of tumour spheroids over time (LaFOS time-course): increasing efficacy
[1]; Homo sapiens, over the course of 72 hours, duplicate spheroids (R1 and R2), treated at 1 μM, read-out: inhibition rate (4-dimensional drug response of tumor spheroids)
  inhibition at 1 µM: 80%

From patent US20200218874A1, “A LABEL-FREE METHOD AND SYSTEM FOR MEASURING DRUG RESPONSE KINETICS OF THREE-DIMENSIONAL CELLULAR STRUCTURES” (AGENCY FOR SCIENCE, TECHNOLOGY AND RESEARCH, priority 2017, published 2020)
